# Measurements: US20110311533A1 (priority 2010, published 2011)
# Biological target: PrP (Mus musculus, UniProt P04925)
# Format: cell-based
# Chain of PrP (P04925 23-230 limits assumed): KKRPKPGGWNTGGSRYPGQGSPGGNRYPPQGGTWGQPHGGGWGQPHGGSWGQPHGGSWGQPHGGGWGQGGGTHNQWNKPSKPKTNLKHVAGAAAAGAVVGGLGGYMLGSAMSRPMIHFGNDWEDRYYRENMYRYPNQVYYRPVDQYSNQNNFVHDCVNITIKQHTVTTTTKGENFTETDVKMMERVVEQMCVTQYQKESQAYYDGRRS
substance,measurement,value
Tunicamycin,PrP glycoform pattern,accumulate the non-glycosilated specie of PrP
